Source: patent EP1189687B1, “FLOWABLE W/O TYPE EMULSIONS WITH A HIGH WATER CONTENT CONTAINING MEDIUM POLAR LIPIDS” (Beiersdorf AG, priority 1999, dated 2000)

Assay: Interfacial tension of medium-polar lipids against water (measure of polarity)
Type: physicochemical
Settings: taken as polarity index of the lipid (the lower the tension, the more polar)
Excerpt: Öle und Fette unterscheiden sich unter anderem in ihrer Polarität, welche schwierig zu definieren ist. Es wurde bereits vorgeschlagen, die Grenzflächenspannung gegenüber Wasser als Maß für den Polaritätsindex eines Öls bzw. einer Ölphase anzunehmen. Dabei gilt, daß die Polarität der betreffenden Ölphase umso größer ist, je niedriger die Grenzflächenspannung zwischen dieser Ölphase und Wasser ist. Erfindungsgemäß wird die Grenzflächenspannung als ein mögliches Maß für die Polarität einer gegebenen Ölkomponente angesehen.
Die Grenzflächenspannung ist diejenige Kraft, die an einer gedachten, in der Grenzfläche zwischen zwei Phasen befindlichen Linie der Länge von einem Meter wirkt. Die physikalische Einheit für diese Grenzflächenspannung errechnet sich klassisch nach der Beziehung Kraft/Länge und wird gewöhnlich in mN/m (Millinewton geteilt durch Meter) wiedergegeben. Sie hat positives Vorzeichen, wenn sie das Bestreben hat, die Grenzfläche zu verkleinern. Im umgekehrten Falle hat sie negatives Vorzeichen.
Die nachfolgende Tabelle 1 führt mittelpolare Lipide auf, die als Einzelsubstanzen oder auch im Gemisch untereinander erfindungsgemäß vorteilhaft sind. Die betreffenden Grenzflächenspannungen gegen Wasser sind in der letzten Spalte angegeben. Es ist jedoch auch vorteilhaft, Gemische aus höher- und niederpolaren und dergleichen zu verwenden, sofern gewährleistet ist, daß die Gesamtpolarität der Ölphase im beanspruchten Bereich liegt. Tabelle 1

| Compound | Grenzflächenspannung gegen Wasser |
| --- | --- |
| CCCCCCCCCCC(CO)CCCCCCCC (centres unmarked) [Eutanol® G, Octyldodecanol] | 24,8 mN/m |
| CCCCCCCCC(CO)CCCCCC (centres unmarked) [Isofol® 16, Hexyl Decanol] | 24,3 mN/m |
| CCCCCCCCCCCCCCCCCC(=O)OC(C)C [Isopropylstearal, Isopropyl Stearate] | 21,9 mN/m |
| CCCCCCCC(=O)OCC(COC(=O)CCCCCCC)OC(=O)CCCCCCC [Trivent® OCG, Tricaprylin] | 20,2 mN/m |

Further lines, results first:

| Grenzflächenspannung gegen Wasser | Compound |
| --- | --- |
| 28,4 mN/m | CCCCCCCCCCCCCCCCCC(=O)OCCCCCCCC [Cetiol® 868, Octyl Stearate] |
| 22,1 mN/m | CCCCCCCCCCCCCC(=O)OCC(CCCCCCCC)CCCCCCCCCC (centres unmarked) [MOD, Octyldodeceyl Myristate] |
| 29,7 mN/m | CCCCCCCCOC(=O)CCCCCCCCCCCCCCC(C)C [Prisorine® 2036, Octyl Isostearate] |
| 28,7 mN/m | CCCCCCCCCCCCCCCCCCOC(=O)CCCCCC [Tegosoft® SH, Stearyl Heptanoate] |
